According to patent US10294202B2, “Pyrrolidinones as herbicides” (FMC Corporation, priority 2013, dated 2019):

Columns and labels:
[1] = test system: Russian thistle; assay: Test D pre-/postemergence herbicide test; format: in vivo, Salsola kali; conditions: for Plant response rating: Postemergence, Russian Thistle, scale 0 to 100; for Plant response rating, Russian Thistle: Preemergence, scale 0 to 100 (0 no effect, 100 complete control)
Description: Seeds of plant species selected from bluegrass (annual bluegrass, Poa annua), blackgrass (Alopecurus myosuroides), canarygrass (littleseed canarygrass, Phalaris minor), chickweed (common chickweed, Stellaria media), galium (catchweed bedstraw, Galium aparine), bromegrass, downy (downy bromegrass, Bromus tectorum), field poppy (Papaver rhoeas), field violet (Viola arvensis), foxtail, green (green foxtail, Setaria viridis), deadnettle (henbit deadnettle, Lamium amplexicaule), ryegrass, Italian (Italian ryegrass, Lolium multiflorum), kochia (Kochia scoparia), lambsquarters (Chenopodium album), oilseed rape (Brassica napus), pigweed (Amaranthus retroflexus), chamomile (scentless chamomile, Matricaria inodora), Russian thistle (Salsola kali), speedwell (bird's-eye speedwell, Veronica persica), barley, spring (spring barley, Hordeum vulgare), wheat, spring (spring wheat, Triticum aestivum), buckwheat, wild (wild buckwheat, Polygonum convolvulus), mustard, wild (wild mustard, Sinapis arvensis), oat, wild (wild oat, Avena fatua), radish, wild (wild radish, Raphanus raphanistrum), […]), barley, winter (winter barley, Hordeum vulgare), and wheat, winter (winter wheat, Triticum aestivum) were planted into a silt loam soil and treated preemergence with test chemicals formulated in a non-phytotoxic solvent mixture which included a surfactant. At the same time, these species were planted in pots containing Redi-Earth® planting medium (Scotts Company, 14111 Scottslawn Road, Marysville, Ohio 43041) comprising spaghnum peat moss, vermiculite, wetting agent and starter nutrients and treated with postemergence applications of the test chemicals formulated in the same manner. Plants ranged in height from 2 to 18 cm (1- to 4-leaf stage). Treated plants and controls were maintained in a controlled growth environment for 7 to 21 days after which time all species were compared to controls and visually evaluated. Plant response ratings, summarized in Table D, are based on a scale of 0 to 100 where 0 is no effect and 100 is complete control. A dash (-) response means no test result.

[2] = test system: mustard, wild; assay: Test D pre-/postemergence herbicide test; format: in vivo, Sinapis arvensis; conditions: for Plant response rating: Mustard, Wild, scale 0 to 100; for Plant response rating, Mustard, Wild: scale 0 to 100 (0 no effect, 100 complete control)
Method in brief: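 Visual 0–100 ratings (0 = no effect, 100 = complete control) versus controls, made 7 to 21 days after treatment in a controlled growth environment. Test chemicals in surfactant-containing non-phytotoxic solvent were applied preemergence to silt loam-sown seeds and postemergence to plants 2–18 cm tall.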

[3] = test system: soybean; assay: Test E preemergence herbicide test; format: in vivo, Glycine max; set-up: key: 0 = no effect, 100 = complete control
Description: (§1) Seeds of plant species selected from corn (Zea mays), soybean (Glycine max), velvetleaf (Abutilon theophrasti), lambsquarters (Chenopodium album), wild poinsettia (Euphorbia heterophylla), pigweed, palmer (palmer pigweed, Amaranthus palmeri), waterhemp (common waterhemp, Amaranthus rudis), surinam grass (Brachiaria decumbens), crabgrass, large (large crabgrass, Digitaria sanguinalis), crabgrass, Brazil (Brazilian crabgrass, Digitaria horizontalis), panicum, fall (fall panicum, Panicum dichotomiflorum), foxtail, giant (giant foxtail, Setaria faberii), foxtail, green (green foxtail, Setaria viridis), goosegrass (Eleusine indica), johnsongrass (Sorghum halepense), ragweed (common ragweed, Ambrosia elatior), barnyardgrass (Echinochloa crus-galli), sandbur (southern sandbur, Cenchrus echinatus), arrowleaf […] rhombifolia), ryegrass, Italian (Italian ryegrass, Lolium multiflorum), dayflower, VA (Virginia dayflower, Commelina virginica), field bindweed (Convolvulus arvensis), morningglory (Ipomoea coccinea), nightshade (eastern black nightshade, Solanum ptycanthum), kochia (Kochia scoparia), nutsedge, yellow (yellow nutsedge, Cyperus esculentus), cocklebur (common cocklebur, Xanthium strumarium), smartweed (ladysthumb smartweed, Polygonum Persicaria) and beggarticks (hairy beggarticks, Bidens pilosa), were planted into a silt loam soil and treated preemergence with test chemicals formulated in a non-phytotoxic solvent mixture which included a surfactant. Treated plants and controls were maintained in a greenhouse for 21 days, after which time all species were compared to controls and visually evaluated. Plant response ratings, summarized in Table E, are based on a scale of 0 to 100 where 0 is no effect and 100 is complete control. A dash (-) response means no test result.

[4] = test system: lambsquarters; assay: Test E preemergence herbicide test; format: in vivo, Chenopodium album; set-up: key: 0 = no effect, 100 = complete control
Description: as §1

[5] = test system: nightshade; assay: Test E preemergence herbicide test; format: in vivo, Solanum ptycanthum; set-up: key: 0 = no effect, 100 = complete control
Description: as §1

[6] = test system: rice, transplanted; assay: Test F flood (paddy) test; format: in vivo, Oryza sativa cv. Japonica—M202; conditions: 21 d, scale 0-100
Method in brief: (§2)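 Compounds were applied directly to paddy water held 3 cm above silt loam soil, with rice and weeds at the 2.0–2.5-leaf stage, grown in a greenhouse at 30/27° C under a 16-h photoperiod. Visual ratings (0 no effect to 100 complete control) were made against untreated controls after 21 d.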

[7] = test system: watergrass, late; assay: Test F flood (paddy) test; format: in vivo, Echinochloa oryzicola; conditions: 21 d, scale 0-100
Method in brief: as §2

SMILES	Plant response rating, Mustard, Wild ([2]; Preemergence, 62 g ai/ha)	Plant response rating, Mustard, Wild ([2]; Preemergence, 31 g ai/ha)	Plant response rating ([2]; Preemergence, 250 g ai/ha)	Plant response rating, Soybean ([3]; 31 g ai/ha)	Plant response rating, Soybean ([3]; 62 g ai/ha)	Plant response rating, Soybean ([3]; 125 g ai/ha)	Plant response rating, Soybean ([3]; 250 g ai/ha)	Plant response rating, Lambsquarters ([4]; 31 g ai/ha)	Plant response rating, Lambsquarters ([4]; 62 g ai/ha)	Plant response rating, Lambsquarters ([4]; 125 g ai/ha)	Plant response rating, Lambsquarters ([4]; 250 g ai/ha)	Plant response rating, Nightshade ([5]; 62 g ai/ha)	Plant response rating, Nightshade ([5]; 125 g ai/ha)	Plant response rating, Nightshade ([5]; 250 g ai/ha)	Plant response rating, Rice, Transplanted ([6]; 125 g ai/ha)	Plant response rating, Rice, Transplanted ([6]; 250 g ai/ha)	Plant response rating, Rice, Transplanted ([6]; 500 g ai/ha)	Plant response rating, Watergrass, Late ([7]; 125 g ai/ha)	Plant response rating, Watergrass, Late ([7]; 250 g ai/ha)	Plant response rating, Nightshade ([5]; 31 g ai/ha)	further results
O=C1NCC(c2ccc(C(F)(F)F)cc2)C1C(=O)Nc1cccc(F)c1F (stereo not drawn) [Compound 80, N-(2,3-difluorophenyl)-2-oxo-4-[4-(trifluoromethyl)phenyl]-3-pyrrolidinecarboxamide]	25	0	70	0	0	0	40	80	85	90	90	60	70	70							Plant response rating ([1]; 31 g ai/ha): 20; Plant response rating ([1]; 62 g ai/ha): 30; Plant response rating ([1]; 125 g ai/ha): 25; Plant response rating ([1]; 250 g ai/ha): 35; Plant response rating ([2]; Postemergence, 31 g ai/ha): 70; Plant response rating ([2]; Postemergence, 62 g ai/ha): 80; Plant response rating ([2]; Postemergence, 125 g ai/ha): 85; Plant response rating ([2]; Postemergence, 250 g ai/ha): 85; Plant response rating ([2]; Preemergence, 125 g ai/ha): 65; Plant response rating, Soybean ([3]; 16 g ai/ha): 0; Plant response rating, Lambsquarters ([4]; 16 g ai/ha): 50; Plant response rating, Nightshade ([5]; 16 g ai/ha): 50
O=C1NCC(c2ccc(F)c(F)c2)C1C(=O)Nc1cccc(F)c1F (racemic) [Compound 101]															0	0	0	75	85		Plant response rating, Rice, Transplanted ([6]; 64 g ai/ha): 0; Plant response rating, Watergrass, Late ([7]; 64 g ai/ha): 65; Plant response rating, Watergrass, Late ([7]; 500 g ai/ha): 85
O=C1NCCC1C(=O)N(c1ccc(F)c(F)c1)c1ccccc1F (stereo not drawn) [Compound 5, N-(3,4-difluorophenyl)-N-(2-fluorophenyl)-2-oxo-3-pyrrolidinecarboxamide]															0	0	0	55	70		Plant response rating, Rice, Transplanted ([6]; 1000 g ai/ha): 0; Plant response rating, Rice, Transplanted ([6]; 2000 g ai/ha): 0; Plant response rating, Watergrass, Late ([7]; 500 g ai/ha): 75; Plant response rating, Watergrass, Late ([7]; 1000 g ai/ha): 100; Plant response rating, Watergrass, Late ([7]; 2000 g ai/ha): 100
O=C1NC[C@H](c2cccc(C(F)(F)F)c2)[C@H]1C(=O)Nc1ccccc1F [Compound 204, (3R,4S)—N-(2-fluorophenyl)-2-oxo-4-[3-(trifluoromethyl)phenyl]-3-pyrrolidinecarboxamide]	20	0	20	0	0	0		98	98	90	65	20	100	100	0	0	0	70	98	0	Plant response rating, Mustard, Wild ([2]; Preemergence, 125 g ai/ha): 20; Plant response rating, Watergrass, Late ([7]; 500 g ai/ha): 98
O=C1NCC(c2ccc(OC(F)F)cc2)C1C(=O)Nc1cccc(F)c1F (racemic) [Compound 350]				0	0	0	0	80	60	98	95	0	50	80						0	
O=C1NCC(c2ccc(Cl)c(Cl)c2)C1C(=O)Nc1ccccc1F (racemic) [Compound 14]				0	0	0	0	0	0	50	70	30	50	70						0	Plant response rating, Soybean ([3]; 16 g ai/ha): 0; Plant response rating, Lambsquarters ([4]; 16 g ai/ha): 0; Plant response rating, Nightshade ([5]; 16 g ai/ha): 0
O=C1NCC(c2ccc(C(F)(F)F)cc2)C1C(=O)Nc1cccc(F)c1F (racemic) [Compound 202]	0	0	75	0	0	0	0	0	98	98	98	50	90	80						0	Plant response rating ([1]; 31 g ai/ha): 30; Plant response rating ([1]; 62 g ai/ha): 30; Plant response rating ([1]; 125 g ai/ha): 30; Plant response rating ([1]; 250 g ai/ha): 35; Plant response rating, Russian Thistle ([1]; 62 g ai/ha): 20; Plant response rating, Russian Thistle ([1]; 125 g ai/ha): 35; Plant response rating, Russian Thistle ([1]; 31 g ai/ha): 15; Plant response rating, Russian Thistle ([1]; 250 g ai/ha): 40; Plant response rating ([2]; Postemergence, 31 g ai/ha): 85; Plant response rating ([2]; Postemergence, 62 g ai/ha): 80; Plant response rating ([2]; Postemergence, 125 g ai/ha): 80; Plant response rating ([2]; Postemergence, 250 g ai/ha): 85; Plant response rating ([2]; Preemergence, 125 g ai/ha): 20
